Test results reported in PubChem BioAssay (NCI).
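Method: 48-hour compound exposure of cells in 96-well plates, five concentrations, linear interpolation of endpoints. At the GI50, growth is halved. TGI: total growth inhibition.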

Assays:
Test in all cases: NCI anticancer screen, dose series, 48 h
786-0 renal = tested on: 786-0 renal
A498 renal = tested on: A498 renal
A549 NSCLC = tested on: A549 NSCLC
ACHN renal = tested on: ACHN renal
BT-549 breast = tested on: BT-549 breast
CAKI-1 renal = tested on: CAKI-1 renal
CCRF-CEM leukemia = tested on: CCRF-CEM leukemia
COLO 205 colon = tested on: COLO 205 colon
DU-145 prostate = tested on: DU-145 prostate
EKVX NSCLC = tested on: EKVX NSCLC
HCC-2998 colon = tested on: HCC-2998 colon
HCT-116 colon = tested on: HCT-116 colon
HCT-15 colon = tested on: HCT-15 colon
HL-60(TB) leukemia = tested on: HL-60(TB) leukemia
HOP-62 NSCLC = tested on: HOP-62 NSCLC
HOP-92 NSCLC = tested on: HOP-92 NSCLC
HS 578T breast = tested on: HS 578T breast
HT29 colon = tested on: HT29 colon
IGROV1 ovarian = tested on: IGROV1 ovarian
K-562 leukemia = tested on: K-562 leukemia
KM12 colon = tested on: KM12 colon
LOX IMVI melanoma = tested on: LOX IMVI melanoma
M14 melanoma = tested on: M14 melanoma
MALME-3M melanoma = tested on: MALME-3M melanoma
MCF7 breast = tested on: MCF7 breast
MDA-MB-231 breast = tested on: MDA-MB-231 breast
MDA-MB-435 = tested on: MDA-MB-435
MOLT-4 leukemia = tested on: MOLT-4 leukemia
NCI-H226 lung = tested on: NCI-H226 lung
NCI-H23 lung = tested on: NCI-H23 lung
NCI-H460 lung = tested on: NCI-H460 lung
NCI-H522 lung = tested on: NCI-H522 lung
NCI/ADR-RES ovarian = tested on: NCI/ADR-RES ovarian
OVCAR-3 ovarian = tested on: OVCAR-3 ovarian
OVCAR-4 ovarian = tested on: OVCAR-4 ovarian
OVCAR-5 ovarian = tested on: OVCAR-5 ovarian
OVCAR-8 ovarian = tested on: OVCAR-8 ovarian
PC-3 prostate = tested on: PC-3 prostate
RPMI-8226 leukemia = tested on: RPMI-8226 leukemia
RXF 393 renal = tested on: RXF 393 renal
SF-268 CNS = tested on: SF-268 CNS
SF-295 CNS = tested on: SF-295 CNS
SF-539 CNS = tested on: SF-539 CNS
SK-MEL-2 melanoma = tested on: SK-MEL-2 melanoma
SK-MEL-28 melanoma = tested on: SK-MEL-28 melanoma
SK-MEL-5 melanoma = tested on: SK-MEL-5 melanoma
SK-OV-3 ovarian = tested on: SK-OV-3 ovarian
SN12C renal = tested on: SN12C renal
SNB-19 CNS = tested on: SNB-19 CNS
SNB-75 CNS = tested on: SNB-75 CNS
SR leukemia = tested on: SR leukemia
SW-620 colon = tested on: SW-620 colon
T-47D breast = tested on: T-47D breast
TK-10 renal = tested on: TK-10 renal
U251 CNS = tested on: U251 CNS
UACC-257 melanoma = tested on: UACC-257 melanoma
UACC-62 melanoma = tested on: UACC-62 melanoma
UO-31 renal = tested on: UO-31 renal

Question: NCCCCCn1c2c(c3ccccc3c1=O)C(=O)c1ccccc1-2 was tested. Which GI50 (786-0 renal) did it give?
Answer: 274 nM

Question: What about the TGI (786-0 renal) of the same molecule?
Answer: 2010 nM

Question: What about the GI50 (A498 renal) of the same molecule?
Answer: 1430 nM

Question: And the TGI (A498 renal)?
Answer: 4070 nM

Question: What about the GI50 (A549 NSCLC) of the same molecule?
Answer: 452 nM

Question: What about the GI50 (ACHN renal) of the same molecule?
Answer: 190 nM

Question: What about the TGI (ACHN renal) of the same molecule?
Answer: 909 nM

Question: What about the GI50 (BT-549 breast) of the same molecule?
Answer: 1570 nM

Question: And the TGI (BT-549 breast)?
Answer: 4600 nM

Question: And the GI50 (CAKI-1 renal)?
Answer: 749 nM

Question: What about the TGI (CAKI-1 renal) of the same molecule?
Answer: 14000 nM

Question: What about the GI50 (CCRF-CEM leukemia) of the same molecule?
Answer: 106 nM

Question: And the TGI (CCRF-CEM leukemia)?
Answer: 1160 nM

Question: And the GI50 (COLO 205 colon)?
Answer: 639 nM

Question: And the TGI (COLO 205 colon)?
Answer: 3270 nM

Question: And the GI50 (DU-145 prostate)?
Answer: 266 nM

Question: And the GI50 (EKVX NSCLC)?
Answer: 4080 nM

Question: What about the TGI (EKVX NSCLC) of the same molecule?
Answer: 17100 nM

Question: And the GI50 (HCC-2998 colon)?
Answer: 529 nM

Question: And the TGI (HCC-2998 colon)?
Answer: 2630 nM

Question: What about the GI50 (HCT-116 colon) of the same molecule?
Answer: 151 nM

Question: And the TGI (HCT-116 colon)?
Answer: 3910 nM

Question: And the GI50 (HCT-15 colon)?
Answer: 163 nM

Question: And the TGI (HCT-15 colon)?
Answer: 2340 nM

Question: What about the GI50 (HL-60(TB) leukemia) of the same molecule?
Answer: 159 nM

Question: And the TGI (HL-60(TB) leukemia)?
Answer: 744 nM

Question: And the GI50 (HOP-62 NSCLC)?
Answer: 221 nM

Question: And the TGI (HOP-62 NSCLC)?
Answer: 2190 nM

Question: And the GI50 (HOP-92 NSCLC)?
Answer: 435 nM

Question: And the TGI (HOP-92 NSCLC)?
Answer: 3720 nM

Question: What about the GI50 (HS 578T breast) of the same molecule?
Answer: 1770 nM

Question: What about the TGI (HS 578T breast) of the same molecule?
Answer: 12900 nM

Question: And the GI50 (HT29 colon)?
Answer: 246 nM

Question: And the TGI (HT29 colon)?
Answer: 4660 nM

Question: And the GI50 (IGROV1 ovarian)?
Answer: 241 nM

Question: What about the TGI (IGROV1 ovarian) of the same molecule?
Answer: 2750 nM

Question: And the GI50 (K-562 leukemia)?
Answer: 195 nM

Question: And the TGI (K-562 leukemia)?
Answer: 2470 nM

Question: What about the GI50 (KM12 colon) of the same molecule?
Answer: 284 nM

Question: What about the TGI (KM12 colon) of the same molecule?
Answer: 2480 nM

Question: What about the GI50 (LOX IMVI melanoma) of the same molecule?
Answer: 221 nM

Question: And the TGI (LOX IMVI melanoma)?
Answer: 1760 nM

Question: What about the GI50 (M14 melanoma) of the same molecule?
Answer: 1410 nM

Question: And the TGI (M14 melanoma)?
Answer: 3220 nM

Question: What about the GI50 (MALME-3M melanoma) of the same molecule?
Answer: 1130 nM

Question: And the TGI (MALME-3M melanoma)?
Answer: 3170 nM

Question: And the GI50 (MCF7 breast)?
Answer: 69.6 nM

Question: What about the TGI (MCF7 breast) of the same molecule?
Answer: 3490 nM

Question: What about the GI50 (MDA-MB-231 breast) of the same molecule?
Answer: 1760 nM

Question: And the TGI (MDA-MB-231 breast)?
Answer: 6090 nM

Question: And the GI50 (MDA-MB-435)?
Answer: 1360 nM

Question: And the TGI (MDA-MB-435)?
Answer: 3620 nM

Question: And the GI50 (MOLT-4 leukemia)?
Answer: 28.5 nM

Question: And the TGI (MOLT-4 leukemia)?
Answer: 1740 nM

Question: And the GI50 (NCI-H226 lung)?
Answer: 479 nM

Question: And the TGI (NCI-H226 lung)?
Answer: 2160 nM

Question: What about the GI50 (NCI-H23 lung) of the same molecule?
Answer: 314 nM

Question: What about the TGI (NCI-H23 lung) of the same molecule?
Answer: 1470 nM

Question: What about the GI50 (NCI-H460 lung) of the same molecule?
Answer: 53.7 nM

Question: And the TGI (NCI-H460 lung)?
Answer: 1020 nM

Question: What about the GI50 (NCI-H522 lung) of the same molecule?
Answer: 215 nM

Question: What about the TGI (NCI-H522 lung) of the same molecule?
Answer: 1690 nM

Question: And the GI50 (NCI/ADR-RES ovarian)?
Answer: 1410 nM

Question: And the TGI (NCI/ADR-RES ovarian)?
Answer: 4860 nM

Question: What about the GI50 (OVCAR-3 ovarian) of the same molecule?
Answer: 1100 nM

Question: And the TGI (OVCAR-3 ovarian)?
Answer: 6740 nM

Question: What about the GI50 (OVCAR-4 ovarian) of the same molecule?
Answer: 1540 nM

Question: What about the TGI (OVCAR-4 ovarian) of the same molecule?
Answer: 5580 nM

Question: What about the GI50 (OVCAR-5 ovarian) of the same molecule?
Answer: 999 nM

Question: What about the TGI (OVCAR-5 ovarian) of the same molecule?
Answer: 3840 nM

Question: And the GI50 (OVCAR-8 ovarian)?
Answer: 497 nM

Question: What about the TGI (OVCAR-8 ovarian) of the same molecule?
Answer: 10500 nM

Question: What about the GI50 (PC-3 prostate) of the same molecule?
Answer: 1230 nM

Question: And the TGI (PC-3 prostate)?
Answer: 5370 nM

Question: And the GI50 (RPMI-8226 leukemia)?
Answer: 222 nM

Question: And the TGI (RPMI-8226 leukemia)?
Answer: 1510 nM

Question: And the GI50 (RXF 393 renal)?
Answer: 2830 nM

Question: What about the TGI (RXF 393 renal) of the same molecule?
Answer: > 26300 nM

Question: And the GI50 (SF-268 CNS)?
Answer: 321 nM

Question: What about the TGI (SF-268 CNS) of the same molecule?
Answer: 3060 nM

Question: What about the GI50 (SF-295 CNS) of the same molecule?
Answer: 527 nM

Question: And the TGI (SF-295 CNS)?
Answer: 6380 nM

Question: What about the GI50 (SF-539 CNS) of the same molecule?
Answer: 864 nM

Question: And the TGI (SF-539 CNS)?
Answer: 2480 nM

Question: What about the GI50 (SK-MEL-2 melanoma) of the same molecule?
Answer: 1410 nM

Question: What about the TGI (SK-MEL-2 melanoma) of the same molecule?
Answer: 2960 nM

Question: And the GI50 (SK-MEL-28 melanoma)?
Answer: 1460 nM

Question: What about the TGI (SK-MEL-28 melanoma) of the same molecule?
Answer: 3160 nM

Question: And the GI50 (SK-MEL-5 melanoma)?
Answer: 617 nM

Question: And the TGI (SK-MEL-5 melanoma)?
Answer: 2050 nM

Question: What about the GI50 (SK-OV-3 ovarian) of the same molecule?
Answer: 531 nM

Question: What about the TGI (SK-OV-3 ovarian) of the same molecule?
Answer: 2160 nM

Question: What about the GI50 (SN12C renal) of the same molecule?
Answer: 305 nM

Question: What about the TGI (SN12C renal) of the same molecule?
Answer: 3970 nM

Question: And the GI50 (SNB-19 CNS)?
Answer: 465 nM

Question: And the TGI (SNB-19 CNS)?
Answer: 7660 nM

Question: What about the GI50 (SNB-75 CNS) of the same molecule?
Answer: 1200 nM

Question: What about the TGI (SNB-75 CNS) of the same molecule?
Answer: 6920 nM

Question: And the GI50 (SR leukemia)?
Answer: 35 nM

Question: And the TGI (SR leukemia)?
Answer: 726 nM

Question: And the GI50 (SW-620 colon)?
Answer: 166 nM

Question: What about the TGI (SW-620 colon) of the same molecule?
Answer: 4090 nM

Question: What about the GI50 (T-47D breast) of the same molecule?
Answer: 451 nM

Question: What about the TGI (T-47D breast) of the same molecule?
Answer: 2140 nM

Question: What about the GI50 (TK-10 renal) of the same molecule?
Answer: 714 nM

Question: And the TGI (TK-10 renal)?
Answer: 7080 nM

Question: What about the GI50 (U251 CNS) of the same molecule?
Answer: 232 nM

Question: What about the TGI (U251 CNS) of the same molecule?
Answer: 4110 nM

Question: What about the GI50 (UACC-257 melanoma) of the same molecule?
Answer: 2000 nM

Question: And the TGI (UACC-257 melanoma)?
Answer: 4700 nM

Question: And the GI50 (UACC-62 melanoma)?
Answer: 1420 nM

Question: What about the TGI (UACC-62 melanoma) of the same molecule?
Answer: 3370 nM

Question: And the GI50 (UO-31 renal)?
Answer: 238 nM

Question: What about the TGI (UO-31 renal) of the same molecule?
Answer: 1530 nM
